In paper doi:10.1101/2025.05.02.651913 (bioRxiv, 2025):
Read-outs that look alike come from different tables or passages of the source.

Columns and labels:
MPXV (2022 Clade IIb) [1] = type: cell-based, Mpox virus (MPXV)
[2] = tested on: MPXV strain hMPXV/USA/MA001/2022 (Lineage B.1, Clade IIb); type: cell-based, Mpox virus (MPXV)
MPXV [3] = tested on: MPXV; parameters: species or system C57BL/6 mice; details: mouse, in vivo
MPXV [4] = type: cell-based, Mpox virus (MPXV)
MPXV (2022 Clade IIb) [5] = test: microbe, parasite or virus in culture; type: cell-based, Mpox virus (MPXV); details: Monkeypox virus, read-out: IC50 (inhibition of MPXV infection)
in vitro = details: human
[6] = human, in vivo; cited from earlier work
MPXV Clade IIb = type: cell-based, Mpox virus (MPXV)
Mpox-related lesions = details: human, in vivo; cited from earlier work
phospho-STING = type: cell-based, human
phospho-NF-κB = type: cell-based, human
MPXV [7] = details: in vivo; cited from earlier work
MPXV [8] = details: cited from earlier work
[9] = in vivo; cited from earlier work
cowpox virus = details: cited from earlier work
vaccinia virus = details: cited from earlier work

CN(C)C/C=C/C(=O)Nc1cc2c(Nc3ccc(F)c(Cl)c3)ncnc2cc1OC(F)F.O=C(O)/C=C\C(=O)O.O=C(O)/C=C\C(=O)O [Mefatinib]
antiviral activity at lower concentrations (MPXV (2022 Clade IIb) [1]): potent antiviral activity
Duplicate of Duplicate of Hits: No CPE [2]: 1

COC1(c2sc3c(N4CCOCC4)nc(-c4cnc(N)nc4)nc3c2C)COC1 [GNE-317]
CC50 (VK2/E6E7 cells): 0.201 µM
concentration at which toxicity was shown (VK2/E6E7 cells): 80 to 100 nM
Duplicate of Duplicate of Hits: No CPE [2]: 1

CCNC(=O)N1CCc2cc(OC)c(OCCc3ccc(OC)c(N)c3)cc2C1c1ccc(OC)cc1C (stereo not drawn) [KRAS inhibitor-10]
skin inflammation and lesions at Day 3 (MPXV [3]): some low-grade inflammation and lesions
skin inflammation and lesions at Day 12 (MPXV [3]): fully resolved
CC50 (VK2/E6E7 cells): > 1 µM
nontoxic up to a concentration (VK2/E6E7 cells): ≤ 1000 nM
Duplicate of Duplicate of Hits: No CPE [2]: 1

O=C(Nc1ncc([N+](=O)[O-])s1)c1ccc([N+](=O)[O-])c(Cl)c1 [SM-7368]
skin inflammation and lesions at Day 3 (MPXV [3]): some low-grade inflammation and lesions
skin inflammation and lesions at Day 12 (MPXV [3]): fully resolved
CC50 (VK2/E6E7 cells): > 1 µM
nontoxic up to a concentration (VK2/E6E7 cells): ≤ 1000 nM
antiviral activity at lower concentrations (MPXV (2022 Clade IIb) [1]): potent antiviral activity
Duplicate of Duplicate of Hits: No CPE [2]: 1
viral protein in cell lysates (Western blot) (MPXV [4]): substantially reduced

CC(C)n1nc(-c2ccc3oc(N)nc3c2)c2c(N)ncnc21 [INK-128, Sapanisertib]
IC50 (MPXV (2022 Clade IIb) [5]): 0.0271 µM
concentration at which toxicity was shown (VK2/E6E7 cells; human): 80 to 100 nM
antiviral activity at lower concentrations (MPXV (2022 Clade IIb) [1]): potent antiviral activity
Duplicate of Duplicate of Hits: No CPE [2]: 1
CC50 (in vitro): 0.353 µM

Nc1ccn(C[C@@H](CO)OCP(=O)(O)O)c(=O)n1 [cidofovir]
serious side effects in clinical trials [6]: kidney toxicity

O=C(NN1C(=O)[C@@H]2[C@@H]3C=C[C@@H]([C@H]4C[C@@H]34)[C@@H]2C1=O)c1ccc(C(F)(F)F)cc1 [Tecovirimat]
antiviral activity against MPXV Clade IIb (MPXV Clade IIb): did not exhibit strong antiviral activity
time to resolution of Mpox-related lesions (Mpox-related lesions): did not reduce the time to resolution of Mpox-related lesions

IRAK4-IN-6
visible skin lesions or neutrophil infiltration (MPXV [3]): none of the mice in the IRAK4-IN-6-treated group had visible skin lesions or neutrophil infiltration
CC50 (VK2/E6E7 cells): > 1 µM
nontoxic up to a concentration (VK2/E6E7 cells): ≤ 1000 nM
phospho-STING expression (phospho-STING): significantly increased
Duplicate of Duplicate of Hits: No CPE [2]: 1
phospho-NF-κB expression (phospho-NF-κB): significantly increased
viral protein in cell lysates (Western blot) (MPXV [4]): substantially reduced

PI3K/mTOR Inhibitor-11
CC50 (VK2/E6E7 cells): 0.421 µM
concentration at which toxicity was shown (VK2/E6E7 cells): 80 to 100 nM
antiviral activity at lower concentrations (MPXV (2022 Clade IIb) [1]): potent antiviral activity
Duplicate of Duplicate of Hits: No CPE [2]: 1

O=C(Nc1ccc([N+](=O)[O-])cc1Cl)c1cc(Cl)ccc1O [Niclosamide]
IC50 (MPXV (2022 Clade IIb) [5]): 0.0118 µM
concentration at which toxicity was shown (VK2/E6E7 cells; human): 80 to 100 nM
viral inhibition compared to vehicle treatment (percent viral infectivity, Fig. 2B) (MPXV (2022 Clade IIb) [1]): strongest viral inhibition
Duplicate of Duplicate of Hits: No CPE [2]: 1
CC50 (in vitro): 0.0963 µM

CCOc1cc2ncc(C#N)c(Nc3ccc(F)c(Cl)c3)c2cc1NC(=O)/C=C/CN(C)C [Pelitinib]
antiviral activity at lower concentrations (MPXV (2022 Clade IIb) [1]): potent antiviral activity
Duplicate of Duplicate of Hits: No CPE [2]: 1

C=CC(=O)N1CCC[C@@H](n2c(=O)n(-c3ccc(Oc4ccccc4)cc3)c3c(N)nccc32)C1 [MC-Tolebrutinib, Tolebrutinib]
Duplicate of Duplicate of Hits: No CPE [2]: 1

NC(=O)c1ncn([C@@H]2O[C@H](CO)[C@@H](O)[C@H]2O)n1 [Ribavirin]
MPXV replication in mouse models (MPXV [7]): block MPXV replication
MPXV replication in vitro (MPXV [8]): block MPXV replication
adverse effect in humans [9]: severe bone marrow suppression

C=CC(=O)Nc1cccc(Oc2nc(Nc3ccc(N4CCN(C)CC4)cc3)nc3ccoc23)c1 [MC-Poseltinib, Poseltinib]
Duplicate of Duplicate of Hits: No CPE [2]: 1

Nc1ccc(-c2ccc3ncc4ccc(=O)n(-c5cccc(C(F)(F)F)c5)c4c3c2)cn1 [NKIL-Torin 2, Torin 2]
Duplicate of Duplicate of Hits: No CPE [2]: 1

Cc1ccc(C(=O)Nc2ccc(CN3CCN(C)CC3)c(C(F)(F)F)c2)cc1C#Cc1cnc2[nH]ncc2c1 [GZD824, Olverembatinib (dimesylate)]
antiviral activity at lower concentrations (MPXV (2022 Clade IIb) [1]): potent antiviral activity
Duplicate of Duplicate of Hits: No CPE [2]: 1

O=C(NOCC(O)CO)c1cc(Br)c(F)c(F)c1Nc1ccc(I)cc1F (stereo not drawn) [NKIL-PD318088, PD318088]
Duplicate of Duplicate of Hits: No CPE [2]: 1

CN(C)C/C=C/C(=O)Nc1cccc(-c2c(-c3ccccc3)oc3ncnc(N[C@H](CO)c4ccccc4)c23)c1 [MC-DBPR112, DBPR112]
Duplicate of Duplicate of Hits: No CPE [2]: 1

COc1ncc(-c2ccc3nccc(-c4ccnnc4)c3c2)cc1NS(=O)(=O)c1ccc(F)cc1F [GSK2126458, Omipalisib]
antiviral activity at lower concentrations (MPXV (2022 Clade IIb) [1]): potent antiviral activity
Duplicate of Duplicate of Hits: No CPE [2]: 1

COc1cc2ncnc(Nc3ccc(F)c(Cl)c3)c2cc1OCCCN1CCOCC1 [Gefitinib]
Duplicate of Duplicate of Hits: No CPE [2]: 1
cowpox virus replication (cowpox virus): reduce vaccinia and cowpox virus replication
vaccinia virus replication (vaccinia virus): reduce vaccinia and cowpox virus replication

C=CC(=O)Nc1cccc(Sc2nc(Nc3ccc(N4CCN(C)CC4)cc3)ncc2Cl)c1 [NKIL-WZ8040, WZ8040]
Duplicate of Duplicate of Hits: No CPE [2]: 1

C=CC(=O)Nc1cc(Nc2nccc(-c3cn(C)c4ccccc34)n2)c(OC)cc1N(C)CCN(C)C.CS(=O)(=O)O [MC-Osimertinib (mesylate), Osimertinib (mesylate)]
Duplicate of Duplicate of Hits: No CPE [2]: 1
